In ChEMBL document CHEMBL3856224, “Novel series of tacrine-tianeptine hybrids: Synthesis, cholinesterase inhibitory activity, S100B secretion and a molecular modeling approach” (Eur J Med Chem, 2016):
pIC50: −log10 of the molar value. Active and inactive are the calls of the source. The rule behind the calls is not given here.

How the values were obtained:
Acetylcholinesterase = molecular target: T1, Acetylcholinesterase (Rattus norvegicus, UniProt P37136); parameters: species or system Wistar
T1 sequence (P37136 whole entry): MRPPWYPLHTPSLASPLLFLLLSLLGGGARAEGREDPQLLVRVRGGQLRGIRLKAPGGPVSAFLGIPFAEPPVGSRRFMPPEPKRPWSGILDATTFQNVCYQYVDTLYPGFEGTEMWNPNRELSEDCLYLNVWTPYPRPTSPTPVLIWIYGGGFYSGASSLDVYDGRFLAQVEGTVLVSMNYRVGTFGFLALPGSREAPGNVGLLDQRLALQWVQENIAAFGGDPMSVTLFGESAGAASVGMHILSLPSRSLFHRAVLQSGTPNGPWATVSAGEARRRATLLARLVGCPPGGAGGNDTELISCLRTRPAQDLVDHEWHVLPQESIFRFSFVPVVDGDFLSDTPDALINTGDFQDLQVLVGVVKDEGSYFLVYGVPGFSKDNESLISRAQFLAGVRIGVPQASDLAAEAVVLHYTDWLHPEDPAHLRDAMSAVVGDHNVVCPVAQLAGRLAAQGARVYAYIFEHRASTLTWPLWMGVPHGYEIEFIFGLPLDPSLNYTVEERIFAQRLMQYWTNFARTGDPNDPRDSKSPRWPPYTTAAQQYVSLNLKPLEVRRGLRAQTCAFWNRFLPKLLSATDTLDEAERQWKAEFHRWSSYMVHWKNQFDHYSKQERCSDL
Description: Inhibition of Wistar rat brain AChE using acetylthiochloline iodide as substrate after 30 mins by Ellman's method

Cholinesterase = Cholinesterase (Homo sapiens, UniProt P06276)
Description: Inhibition of human plasma BuChE using S-butyrylthiocholine iodide as substrate after 30 mins by Ellman's method

Hippocampus = assay: Reduction of S100B secretion in Wistar rat hippocampus at 0.03 to 0.3 uM after 1 hr by ELISA; assay type: functional
Rattus norvegicus [1] = species: Rattus norvegicus; assay: Toxicity in Wistar rat hippocampus assessed as LDH release at 0.1 uM relative to control; assay type: organism-based; conditions: in vivo
Rattus norvegicus [2] = species: Rattus norvegicus; assay: Toxicity in Wistar rat hippocampus assessed as LDH release at 0.03 uM relative to control; assay type: organism-based; conditions: in vivo
Rattus norvegicus [3] = species: Rattus norvegicus; assay: Toxicity in Wistar rat hippocampus assessed as LDH release at 0.3 uM relative to control; assay type: organism-based; conditions: in vivo

Cholinesterase, sequence (P06276 whole entry): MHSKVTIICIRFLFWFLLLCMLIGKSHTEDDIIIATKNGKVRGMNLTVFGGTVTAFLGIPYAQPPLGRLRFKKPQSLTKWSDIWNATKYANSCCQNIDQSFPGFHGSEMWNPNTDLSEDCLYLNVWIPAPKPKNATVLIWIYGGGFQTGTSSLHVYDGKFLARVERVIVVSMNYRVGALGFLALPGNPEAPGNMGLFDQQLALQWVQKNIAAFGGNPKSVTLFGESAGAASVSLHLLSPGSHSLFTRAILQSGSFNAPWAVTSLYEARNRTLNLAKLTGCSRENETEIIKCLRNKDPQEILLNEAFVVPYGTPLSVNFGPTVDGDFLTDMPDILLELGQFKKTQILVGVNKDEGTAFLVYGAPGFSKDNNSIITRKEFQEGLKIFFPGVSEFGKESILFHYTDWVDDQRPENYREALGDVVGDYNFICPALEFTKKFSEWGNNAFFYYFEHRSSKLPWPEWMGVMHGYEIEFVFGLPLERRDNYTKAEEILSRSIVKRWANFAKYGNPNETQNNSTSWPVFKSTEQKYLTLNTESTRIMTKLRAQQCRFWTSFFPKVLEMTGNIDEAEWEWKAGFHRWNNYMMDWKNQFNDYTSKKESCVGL

| SMILES | pIC50 (Acetylcholinesterase) | pIC50 (Cholinesterase) | Activity (Hippocampus) | Activity (Rattus norvegicus [1]) [%] | Activity (Rattus norvegicus [2]) [%] | Activity (Rattus norvegicus [3]) [%] |
| --- | --- | --- | --- | --- | --- | --- |
| CN1c2ccccc2C(NCCCCCCC(=O)NCCCCCCCCNc2c3c(nc4ccccc24)CCCC3)c2ccc(Cl)cc2S1(=O)=O (stereo unspecified) | 7.06 | 8.39 | – | – | – | – |
| CN1c2ccccc2C(NCCCCCCC(=O)NCCCCNc2c3c(nc4ccccc24)CCCC3)c2ccc(Cl)cc2S1(=O)=O (stereo unspecified) | 6.81 | 8.44 | Active | 74.9 | 72.7 | – |
| CN1c2ccccc2C(NCCCCCCC(=O)NCCCNc2c3c(nc4cc(Cl)ccc24)CCCC3)c2ccc(Cl)cc2S1(=O)=O (stereo unspecified) | 8.17 | 7.28 | – | – | – | – |
| CN1c2ccccc2C(NCCCCCCC(=O)NCCCCCNc2c3c(nc4cc(Cl)ccc24)CCCC3)c2ccc(Cl)cc2S1(=O)=O (stereo unspecified) | 7.55 | 7.52 | – | – | – | – |
| CN1c2ccccc2C(NCCCCCCC(=O)NCCCCCCCNc2c3c(nc4cc(Cl)ccc24)CCCC3)c2ccc(Cl)cc2S1(=O)=O (stereo unspecified) | 6.88 | 7.27 | – | – | – | – |
| CN1c2ccccc2C(NCCCCCCC(=O)NCCCCCCCNc2c3c(nc4ccccc24)CCCC3)c2ccc(Cl)cc2S1(=O)=O (stereo unspecified) | 7.19 | 8.19 | – | – | – | – |
| CN1c2ccccc2C(NCCCCCCC(=O)NCCNc2c3c(nc4ccccc24)CCCC3)c2ccc(Cl)cc2S1(=O)=O (stereo unspecified) | 7.09 | 7.65 | – | – | – | – |
| CN1c2ccccc2C(NCCCCCCC(=O)NCCCCCNc2c3c(nc4ccccc24)CCCC3)c2ccc(Cl)cc2S1(=O)=O (stereo unspecified) | 6.97 | 8.16 | Active | – | 67.4 | – |
| CN1c2ccccc2C(NCCCCCCC(=O)NCCCNc2c3c(nc4ccccc24)CCCC3)c2ccc(Cl)cc2S1(=O)=O (stereo unspecified) | 7.28 | 7.94 | – | – | – | – |
| CN1c2ccccc2C(NCCCCCCC(=O)NCCCCCCNc2c3c(nc4ccccc24)CCCC3)c2ccc(Cl)cc2S1(=O)=O (stereo unspecified) | 6.94 | 8.42 | – | – | – | – |
| CN1c2ccccc2C(NCCCCCCC(=O)NCCNc2c3c(nc4cc(Cl)ccc24)CCCC3)c2ccc(Cl)cc2S1(=O)=O (stereo unspecified) | 8.10 | 7.32 | – | – | – | – |
| CN1c2ccccc2C(NCCCCCCC(=O)NCCCCCCNc2c3c(nc4cc(Cl)ccc24)CCCC3)c2ccc(Cl)cc2S1(=O)=O (stereo unspecified) | 7.41 | 7.49 | – | – | – | – |
| c1ccc2c(NCCCCCCCNc3c4c(nc5ccccc35)CCCC4)c3c(nc2c1)CCCC3 | – | 7.42 | – | – | – | – |
| CN1c2ccccc2C(NCCCCCCC(=O)NCCCCNc2c3c(nc4cc(Cl)ccc24)CCCC3)c2ccc(Cl)cc2S1(=O)=O (stereo unspecified) | 7.44 | 7.32 | – | – | – | – |
| CN1c2ccccc2C(NCCCCCCC(=O)NCCCCCCCCNc2c3c(nc4cc(Cl)ccc24)CCCC3)c2ccc(Cl)cc2S1(=O)=O (stereo unspecified) | 6.34 | 6.34 | – | – | – | – |
| CN1c2ccccc2C(NCCCCCCC(=O)O)c2ccc(Cl)cc2S1(=O)=O (stereo unspecified) [TIANEPTINE] | – | – | – | 109.7 | – | 110.8 |
